Reference: US20240216312A1, “PPAR-AGONISTS FOR USE IN THE TREATMENT OF LIVER FAILURE” (Genfit, priority 2021, published 2024)
Like-named read-outs stand apart in the source and are kept apart here.

Legend:
[1] = test system: LPS-induced endotoxemia, Sprague Dawley rats; test: LPS-induced endotoxemia in rats, hepatic markers and serum TNFα; assay type: in vivo; conditions: rat, 3 mg/kg/day oral 3 days before LPS, 3 h after LPS
[2] = test system: CLP induced polymicrobial sepsis, C57BL6J mice; test: Cecal ligation and puncture (CLP) sepsis model in mice, survival; assay type: in vivo; conditions: mouse CLP
Method: This study aims to investigate the efficacy of Cpd.1 in cecal ligation and puncture (CLP) model in C57BL6J (BL6) male mice. The efficacy of the test compound was evaluated based on the survival rate of the animals within the study period.
C57BL6J male mice (supplier Janvier—France) at 9 weeks of age and weighing 23-25 g on arrival were anesthetized with 250 μL of xylazine/ketamine solution (20 mg/100 g body weight) by intraperitoneal route. A 1-1.5 cm abdominal midline incision was made, and the caecum was located and tightly ligated at half the distance between distal pole and the base of the cecum with 4-0 silk suture (mild grade). The caecum was punctured through-and-through once with a 21-gauge needle from mesenteric toward antimesenteric direction after medium ligation. A small amount of stool was extruded to ensure that the wounds were patent. Then the cecum was replaced in its original position within the abdomen, which was closed with sutures and wound clips. Mice were followed for body weight evolution and mortality rate until […].
Cpd.1 or vehicle (Labrafil M 1944 CS, #3063, Gattefossé) was administered at 0.3 mg/kg, p.o. for three days before CLP surgery. The day of CLP (day 0), Cpd.1 was administrated 1 h before surgery and pursued daily until day 6. Experiment was terminated at day 7. […]
Body weight and survival rate were measured for 7 days.

[3] = test system: LPS-induced endotoxemia, Sprague Dawley rats; test: LPS-induced endotoxemia in rats, serum IL6 and IL1β (ELISA); assay type: in vivo; conditions: rat, 3 mg/kg/day oral 3 days before LPS 1 mg/kg i.p., 3 h after LPS
Method: To evaluate the efficacy of the compounds to reduce the cytokine production in response to LPS-induced endotoxemia, male Sprague Dawley rats of 250-275 g from Janvier Labs (France) received a single intraperitoneal injection of 1 mg/kg LPS (Escherichia coli 0111:B4, #L2630, Sigma).
Cpd.1 (3 mg/kg/day) or vehicle (Labrafil M 1944 CS, #3063, Gattefossé) was administered by oral gavage during the 3 days before LPS injection. Rats were euthanized by cervical dislocation 3 hours after treatment. Blood samples were obtained from retro-orbital sinus puncture on animals slightly asleep with isoflurane (Isoflurin 1000 mg/g, GTIN 03760087152678, Axience) just before sacrifice.
The serum concentrations of interleukin-6 (IL6) and interleukin-1β (L1β) were determined by ELISA (SR6000B and SRLB00, respectively, R&D Systems).

THP-1 cells = test: PMA-induced differentiation of THP-1 monocytes into macrophages, TNFα and MCP1 secretion (HTRF); assay type: cell-based; conditions: Homo sapiens, PMA-stimulated THP1 monocytes, 24 h
Method: In order to test the efficacy of the compounds to inhibit the activation of the immune system, we used the human monocytic cell line THP-1 (Sigma). THP1 monocytes were cultured in RPMI 1640 with L-glutamine medium (#10-040-CV, Corning) supplemented with 10% fetal bovine serum (FBS, #10270, Gibco), 1% penicillin/streptomycin (#15140, Gibco) and 25 mM Hepes (H0887, Sigma) in a 5% C02 incubator at 37° C.
To evaluate the effect of the compounds on monocyte differentiation, 2.5×10^4 THP-1 cells were cultured for 24 h in a 384-well plate in FBS-deprived culture medium containing Cpd.1 in dose ranges, as well as 5 or 100 ng/mL phorbol 12-myristate 13-acetate (PMA, #P8139, Sigma), as indicated, to induce differentiation into macrophages.
(§1) Tumor necrosis α (TNFα) and monocyte chemoattractant protein 1 (MCP1) were measured in cell supernatants by Homogeneous Time Resolved Fluorescence (HTRF, #62[…] for TNFα, and 62HCCL2PEG for MCP1, Cisbio). Fluorescence was measured with Infinite 500 (#30019337, Tecan) to determine the concentration of cytokines.

[4] = test system: LPS/GaIN acute liver failure, C57BL/6J mice; test: LPS/GalN model of acute liver failure in mice, hepatic gene expression, serum cytokines and albumin; assay type: in vivo, mouse; conditions: 3 mg/kg/day oral 3 days before LPS/GaIN, 4 h after injection
THP1 macrophages [5] = test: LPS (Klebsiella pneumoniae) activation of THP1 macrophages, MCP1 and TNFα secretion (HTRF); assay type: cell-based, human
Method: (§2) In order to test the efficacy of the compounds on macrophage activation and pro-inflammatory cytokine production, 2.5×10^4 THP-1 cells were cultured in a 384-well plate and treated with 100 ng/mL PMA (#P8139, Sigma) for 24 h to induce differentiation into macrophages.
Then, medium was removed and FBS-deprived medium containing 1 or 10 μM compound was added for 24 h. Finally, THP1 macrophages were stimulated for 6 h with 100 ng/mL LPS (Klebsiella pneumoniae, #L4268, Sigma-Aldrich).
as §1, with “Monocyte chemoattractant protein 1 (MCP1) and Tumor” for “Tumor”, “(TNFα)” for “(TNFα) and monocyte chemoattractant protein 1 (MCP1)”
In order to evaluate the effect of the compounds according to the invention on LPS-induced cytokines production by macrophages, the percentage of inhibition over the vehicle condition were calculated for each compound at 1 and 10 μM.

THP1 macrophages [6] = test: LPS (E. coli) activation of THP1 differentiated macrophages, TNFα and MCP1 secretion; assay type: cell-based, human; conditions: compound 24 h, then 100 ng/mL LPS E. coli 6 h
Method: as §2
Then, medium was removed and FBS-deprived medium containing the compound of formula (I) was added for 24 h. Finally, THP1 macrophages were stimulated with 100 ng/mL LPS (E. coli 055:B5, #L4005, Sigma) for 6 h.

HepG2 cells = test: Staurosporin-induced apoptosis in HepG2 cells, caspase 3/7 activity; assay type: cell-based, human; conditions: 16 h pre-treatment, then 10 μM staurosporin 4 h
Method: In order to evaluate the effect of the compounds on human hepatocytes that undergo a cellular stress induced by staurosporin, the human hepatoblastoma-derived HepG2 cell line (ECACC, #85011430, Sigma-Aldrich) was cultured in high-glucose DMEM medium (#41965, Gibco, France) supplemented with 10% of fetal bovine serum (FBS, #10270, Gibco), 1% penicillin/streptomycin (#15140, Gibco), 1% sodium pyruvate (#11360, Gibco) and 1% MEM non-essential amino acids (#11140, Gibco) in a 5% CO2 incubator at 37° C.
To evaluate caspase 3/7 activity, which is a surrogate marker of apoptosis, 1.5×10^4 cells were plated in a 384-well plate (#781080, Greiner, France). After cell adherence (8 hours), cells were serum starved for 16 h in the presence of 0.3 μM of compounds or vehicle. Cpd.1 was also used at 3 and 10 μM. Thereafter, cells were treated with 10 μM staurosporin (#569397, Sigma-Aldrich, Germany) supplemented with compound for additional 4 hours before cell lysis and caspase activity measurement.
Caspase 3/7 activity was measured using Caspase Glow™ 3/7 assay (#G8093, Promega, USA). Luminescence was measured using a Spark microplate reader (#30086376, Tecan, USA). The amount of luminescence (RLU) directly correlates with caspase 3/7 activity.

## COC(CCc1cc(C)c(OC(C)(C)C(=O)O)c(C)c1)c1ccc(OC(F)(F)F)cc1 (stereo not shown) [Cpd. 1, 2-[4-(3-methoxy-3-(4-(trifluoromethoxy)phenyl)propyl)-2,6-dimethylphenoxy]-2-methylpropanoic acid]
[1]
  serum total bilirubin level compared to vehicle: completely restored
[2]; 0.3 mg/kg p.o.
  side effects after each administration: No side effect
[2]; 0.3 mg/kg p.o. from 3 days before surgery, daily, Day 7
  increase in survival rate compared to CLP+Vehicle group: 47%
[3]
  reduction of serum IL1β level: 31%
  reduction of serum IL6 level: 40%
THP-1 cells; read-out: inhibition of MCP1 content in the supernatant
  inhibition at 1 µM: ~50%
THP-1 cells; read-out: inhibition of TNFα content in the supernatant
  inhibition at 1 µM: ~50%
[4]; mouse liver
  decrease of hepatic Ccl2 mRNA expression: 52%
  decrease of hepatic IL1b mRNA expression: 46%
  decrease of hepatic IL6 mRNA expression: 52%
  decrease of hepatic TNF mRNA expression: 40%
  reduction of hepatic Cd68 mRNA expression: 41%
[4]; mouse serum
  reduction of circulating CCL2 level compared to vehicle: 59%
  reduction of circulating IL6 level compared to vehicle: 62%
  reduction of circulating TNFα level compared to vehicle: 51%
THP1 macrophages [5]; Homo sapiens, THP-1, 1 μM, 24 h, then LPS Klebsiella 6 h, read-out: % inhibition of MCP1 secretion over mean Veh.
  inhibition at 1 µM: 108%
THP1 macrophages [5]; Homo sapiens, THP-1, 10 μM, 24 h, then LPS Klebsiella 6 h, read-out: % inhibition of MCP1 secretion over mean Veh.
  inhibition at 10 µM: 120%
THP1 macrophages [5]; THP1 macrophages, in words, concentration not given
  production of MCP1 induced by LPS Klebsiella: overpassing the untreated condition
THP1 macrophages [6]
  reduction of TNFα secretion: potent at reducing
THP1 macrophages [6]; all doses tested
  reduction of MCP1 secretion: overpassing the untreated condition
HepG2 cells; 0.3 μM to 10 μM
  reduction of staurosporin-induced caspase activity: dose-dependent manner
HepG2 cells; Homo sapiens, HepG2, 0.3 μM, read-out: % Inhibition of caspase activity over mean Veh.
  inhibition at 0.3 µM: 26%
